Our source for the FI5, IC50 and Activity values is ChEMBL document CHEMBL1144524, “Discovery of 7alpha-substituted dihydrotestosterones as androgen receptor pure antagonists and their structure-activity relationships” (Bioorg Med Chem, 2007).

Molecules are shown by their SMILES. The source made the active and inactive calls. The rule behind the calls is not given here. Where only a bound is given, the exact number is not on record here.

The target of test [1] is T1, Androgen receptor (Homo sapiens) (UniProt P10275).
T1 sequence (whole entry): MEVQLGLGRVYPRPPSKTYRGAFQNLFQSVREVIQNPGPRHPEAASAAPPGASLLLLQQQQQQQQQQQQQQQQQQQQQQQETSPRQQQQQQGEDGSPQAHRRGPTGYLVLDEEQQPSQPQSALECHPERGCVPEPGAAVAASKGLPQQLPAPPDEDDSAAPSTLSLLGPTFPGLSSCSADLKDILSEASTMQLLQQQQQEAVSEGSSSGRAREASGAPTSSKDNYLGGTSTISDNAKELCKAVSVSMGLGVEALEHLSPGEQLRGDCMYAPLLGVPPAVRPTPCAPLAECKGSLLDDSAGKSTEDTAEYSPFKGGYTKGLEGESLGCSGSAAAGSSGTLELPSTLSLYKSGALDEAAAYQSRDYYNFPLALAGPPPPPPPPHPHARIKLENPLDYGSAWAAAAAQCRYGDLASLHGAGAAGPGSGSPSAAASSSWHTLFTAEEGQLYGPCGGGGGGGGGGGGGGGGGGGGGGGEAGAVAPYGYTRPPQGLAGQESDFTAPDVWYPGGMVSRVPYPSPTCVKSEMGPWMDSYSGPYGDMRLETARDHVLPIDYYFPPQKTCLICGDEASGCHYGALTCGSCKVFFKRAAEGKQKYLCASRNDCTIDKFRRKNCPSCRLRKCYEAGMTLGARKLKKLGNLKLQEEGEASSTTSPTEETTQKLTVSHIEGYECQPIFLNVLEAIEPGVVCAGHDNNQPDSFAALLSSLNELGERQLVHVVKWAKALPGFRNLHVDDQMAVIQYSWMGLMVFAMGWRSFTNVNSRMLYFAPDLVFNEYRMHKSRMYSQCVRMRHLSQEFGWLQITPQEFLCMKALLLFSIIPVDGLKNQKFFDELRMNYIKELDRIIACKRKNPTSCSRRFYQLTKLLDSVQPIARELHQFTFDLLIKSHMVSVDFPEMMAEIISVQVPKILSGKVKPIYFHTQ
As to conditions: HeLa.
Description: Agonist activity at androgen receptor expressed in HeLa cells assessed as effect on dihydrotestosterone-induced transcriptional activity by reporter gene assay

Test [2] has as its target T2, Androgen receptor (Homo sapiens, UniProt P10275).
T2 sequence (P10275 whole entry): T1 sequence (whole entry)
Description: Antagonist activity at androgen receptor expressed in HeLa cells assessed as inhibition of dihydrotestosterone-induced transcriptional activity by reporter gene assay

The target of test [3] is T2, Androgen receptor. The test is described as follows: biochemical.
Description: Displacement of [3H]mibolerone from androgen receptor expressed in CHOK1 cells
For test [4], the system named is Mus musculus. The test is described as follows: Effect on subcutaneously dosed seminal vesicle wet weight in mouse. The class given is functional, organism-based.
Test [5] relates to Mus musculus. The test can be described thus: Effect on po dosed seminal vesicle wet weight in mouse. The class given is functional, organism-based.

As usually defined, the IC50 is the point on the concentration scale where inhibition reaches its midpoint. Consider `CCN(CC)C(=O)CCCCCCC1C[C@H]2CC(=O)CC[C@]2(C)[C@H]2CC[C@]3(C)[C@@H](O)CC[C@H]3[C@H]12` (some centres not stated), for which the FI5 in test [1] turned out to be 1700 nM. For the same compound, the IC50 stood at 530 nM against Androgen receptor [2] and 330 nM against Androgen receptor [3].

With `CCCN(C)C(=O)CCCCCCCC1C[C@H]2CC(=O)CC[C@]2(C)[C@H]2CC[C@]3(C)[C@@H](O)CC[C@H]3[C@H]12` (some centres not stated), the FI5 in test [1] was > 10000 nM. For the same compound, the concentration for half-maximal inhibition (IC50) against Androgen receptor [2] is 1100 nM; at Androgen receptor [3], 300 nM.

For `CC(C)N(C)C(=O)CCCCCCCC1C[C@H]2CC(=O)CC[C@]2(C)[C@H]2CC[C@]3(C)[C@@H](O)CC[C@H]3[C@H]12` (some centres not stated), the FI5 in test [1] was > 10000 nM. For the same compound, the 50% inhibitory concentration (IC50) against Androgen receptor [2] turned out to be 420 nM; against Androgen receptor [3] it was 430 nM.

`CCCCCCNC(=O)CCCCCCCC1C[C@H]2CC(=O)CC[C@]2(C)[C@H]2CC[C@]3(C)[C@@H](O)CC[C@H]3[C@H]12` (some centres not stated): the FI5 in test [1] is > 10000 nM. Besides, the half-inhibitory concentration (IC50) at Androgen receptor [2] was 6600 nM; on Androgen receptor [3], 2100 nM.

Take `CN(Cc1ccccc1)C(=O)CCCCCCCC1C[C@H]2CC(=O)CC[C@]2(C)[C@H]2CC[C@]3(C)[C@@H](O)CC[C@H]3[C@H]12` (some centres not stated): the FI5 in test [1] was > 10000 nM.

As to `C[C@]12CC[C@H]3[C@@H]([C@H](CCCCC[S+]([O-])CCCC(F)(F)C(F)(F)F)CC4CC(=O)CC[C@@]43C)[C@@H]1CC[C@@H]2O` (some centres not stated), the FI5 in test [1] was found to be 16 nM. The half-inhibitory concentration (IC50) against Androgen receptor [2] is > 10000 nM; against Androgen receptor [3], 6800 nM.

In turn, `CCCCN(C)C(=O)CCCCCCCCCC[C@@H]1CC2CC(=O)CC[C@]2(C)[C@H]2CC[C@]3(C)[C@@H](O)CC[C@H]3[C@H]12` (some centres not stated) returned an FI5 in test [1] of 1900 nM. The values for the IC50 at Androgen receptor [2] and against Androgen receptor [3] were 1300 nM and 1900 nM, respectively.

The compound `CCCCN(C)C(=O)CCCCCCCCC[C@@H]1CC2CC(=O)CC[C@]2(C)[C@H]2CC[C@]3(C)[C@@H](O)CC[C@H]3[C@H]12` (some centres not stated) had an FI5 in test [1] of 570 nM. Besides, the half-inhibitory concentration (IC50) is 1800 nM against Androgen receptor [2] and 570 nM against Androgen receptor [3].

For `C[C@]12CC[C@H]3[C@@H]([C@H](CCCCCCCCC[S+]([O-])CCCC(F)(F)C(F)(F)F)CC4CC(=O)CC[C@@]43C)[C@@H]1CC[C@@H]2O` (some centres not stated), the FI5 in test [1] worked out at 490 nM. For the same compound, the IC50 at Androgen receptor [2] worked out at 2900 nM; against Androgen receptor [3], 110 nM.

As to `CN(C)C(=O)CCCCCCCC1C[C@H]2CC(=O)CC[C@]2(C)[C@H]2CC[C@]3(C)[C@@H](O)CC[C@H]3[C@H]12` (some centres not stated), the FI5 in test [1] was > 10000 nM. The outcome in the test on Mus musculus [4] and in the test on Mus musculus [5] was Active. For the same compound, the half-maximal inhibitory concentration (IC50) at Androgen receptor [2] was 190 nM; against Androgen receptor [3], 260 nM.

Take `CNC(=O)CCCCCCCC1C[C@H]2CC(=O)CC[C@]2(C)[C@H]2CC[C@]3(C)[C@@H](O)CC[C@H]3[C@H]12` (some centres not stated): the FI5 in test [1] is > 10000 nM. In addition, the IC50 was 480 nM at Androgen receptor [2] and 710 nM against Androgen receptor [3].

As for `C[C@]12CC[C@H]3[C@@H]([C@H](CCCCCCCCCCC[S+]([O-])CCCC(F)(F)C(F)(F)F)CC4CC(=O)CC[C@@]43C)[C@@H]1CC[C@@H]2O` (some centres not stated), the FI5 in test [1] was > 10000 nM. Also, the 50% inhibitory concentration (IC50) against Androgen receptor [2] and on Androgen receptor [3] was > 10000 nM throughout.

In test [1], `CCCCN(C)C(=O)CCCCCCCC[C@@H]1CC2CC(=O)CC[C@]2(C)[C@H]2CC[C@]3(C)[C@@H](O)CC[C@H]3[C@H]12` (some centres not stated) gave an FI5 of 550 nM. In addition, the half-maximal inhibitory concentration (IC50) amounted to 3400 nM at Androgen receptor [2] and 550 nM on Androgen receptor [3].

Take `CCCCN(C)C(=O)CCCCCCCC1C[C@H]2CC(=O)CC[C@]2(C)[C@H]2CC[C@]3(C)[C@@H](O)CC[C@H]3[C@H]12` (some centres not stated): the FI5 in test [1] was > 10000 nM. The IC50 was found to be 340 nM on Androgen receptor [2] and 280 nM against Androgen receptor [3].

In the case of `C[C@]12CCC(=O)C[C@@H]1CC(CCCCCCCC(N)=O)[C@@H]1[C@@H]2CC[C@]2(C)[C@@H](O)CC[C@@H]12` (some centres not stated), in test [1], the FI5 came to 2400 nM. The concentration for half-maximal inhibition (IC50) worked out at 450 nM against Androgen receptor [2] and 260 nM against Androgen receptor [3].

Regarding `CCCCNC(=O)CCCCCCCC1C[C@H]2CC(=O)CC[C@]2(C)[C@H]2CC[C@]3(C)[C@@H](O)CC[C@H]3[C@H]12` (some centres not stated), the FI5 in test [1] is 1600 nM. The IC50 against Androgen receptor [2] turned out to be 6300 nM.

Regarding `CCNC(=O)CCCCCCCC1C[C@H]2CC(=O)CC[C@]2(C)[C@H]2CC[C@]3(C)[C@@H](O)CC[C@H]3[C@H]12` (some centres not stated), the FI5 in test [1] was > 10000 nM. For the same compound, the half-maximal inhibitory concentration (IC50) against Androgen receptor [2] amounted to 940 nM; at Androgen receptor [3], 1500 nM.

Turning to `CCCNC(=O)CCCCCCCC1C[C@H]2CC(=O)CC[C@]2(C)[C@H]2CC[C@]3(C)[C@@H](O)CC[C@H]3[C@H]12` (some centres not stated), in test [1], the FI5 was > 10000 nM. In addition, the 50% inhibitory concentration (IC50) against Androgen receptor [2] came out at 1800 nM; against Androgen receptor [3] it was 1600 nM.

The compound `CCCCN(C)C(=O)CCCCCCC[C@@H]1CC2CC(=O)CC[C@]2(C)[C@H]2CC[C@]3(C)[C@@H](O)CC[C@H]3[C@H]12` (some centres not stated) showed an FI5 in test [1] of 280 nM. Moreover, the IC50 was 340 nM on Androgen receptor [2] and 280 nM against Androgen receptor [3].

As to `C[C@]12CCC(=O)C[C@@H]1CC(CCCCCCCC(=O)N1CCCC1)[C@@H]1[C@@H]2CC[C@]2(C)[C@@H](O)CC[C@@H]12` (some centres not stated), in test [1], the FI5 was > 10000 nM. The half-maximal inhibitory concentration (IC50) came out at 300 nM at Androgen receptor [2] and 350 nM against Androgen receptor [3].

Regarding `CCCCN(C)C(=O)CCCCCCCCCCC[C@@H]1CC2CC(=O)CC[C@]2(C)[C@H]2CC[C@]3(C)[C@@H](O)CC[C@H]3[C@H]12` (some centres not stated), the FI5 in test [1] came out at 9900 nM. Further, the IC50 is 3500 nM against Androgen receptor [2] and 9900 nM on Androgen receptor [3].

In the case of `CCN(CC)C(=O)CCCCCCCC1C[C@H]2CC(=O)CC[C@]2(C)[C@H]2CC[C@]3(C)[C@@H](O)CC[C@H]3[C@H]12` (some centres not stated), the FI5 in test [1] is > 10000 nM. Also, the IC50 was 300 nM against Androgen receptor [2] and 120 nM against Androgen receptor [3].

As for `CCN(C)C(=O)CCCCCCCC1C[C@H]2CC(=O)CC[C@]2(C)[C@H]2CC[C@]3(C)[C@@H](O)CC[C@H]3[C@H]12` (some centres not stated), the FI5 in test [1] is > 10000 nM. For the same compound, the IC50 against Androgen receptor [2] was 420 nM; at Androgen receptor [3], 660 nM.

As for `C[C@]12CCC(=O)C[C@@H]1CC(CCCCCCCC(=O)N1CCCCC1)[C@@H]1[C@@H]2CC[C@]2(C)[C@@H](O)CC[C@@H]12` (some centres not stated), the FI5 in test [1] is > 10000 nM.

Regarding `C[C@]12CCC(=O)C[C@@H]1CC(CCCCCCCC(=O)N1CCOCC1)[C@@H]1[C@@H]2CC[C@]2(C)[C@@H](O)CC[C@@H]12` (some centres not stated), the FI5 in test [1] is > 10000 nM.

`C[C@]12CC[C@H]3[C@@H]([C@H](CCCCCCC[S+]([O-])CCCC(F)(F)C(F)(F)F)CC4CC(=O)CC[C@@]43C)[C@@H]1CC[C@@H]2O` (some centres not stated) gave an FI5 in test [1] of 200 nM. Moreover, the IC50 against Androgen receptor [2] is > 10000 nM; on Androgen receptor [3] it was 960 nM.

As to `CN(C)C(=O)CCCCCCC1C[C@H]2CC(=O)CC[C@]2(C)[C@H]2CC[C@]3(C)[C@@H](O)CC[C@H]3[C@H]12` (some centres not stated), the FI5 in test [1] was 490 nM. For the same compound, the results for the IC50 against Androgen receptor [2] and on Androgen receptor [3] were 200 nM and 110 nM, respectively.

Consider `C[C@]12CC[C@H]3[C@@H]([C@H](CCCCCCCCCCCCC[S+]([O-])CCCC(F)(F)C(F)(F)F)CC4CC(=O)CC[C@@]43C)[C@@H]1CC[C@@H]2O` (some centres not stated), for which, in test [1], the FI5 is > 10000 nM. For the same compound, the values for the IC50 on Androgen receptor [2] and at Androgen receptor [3] were 10000 nM and > 10000 nM, respectively.

As for `CCCCCCN(CCCCCC)C(=O)CCCCCCCC1C[C@H]2CC(=O)CC[C@]2(C)[C@H]2CC[C@]3(C)[C@@H](O)CC[C@H]3[C@H]12` (some centres not stated), the FI5 in test [1] was > 10000 nM. For the same compound, the IC50 at Androgen receptor [2] and against Androgen receptor [3] was > 10000 nM each time.
